Experimental data from patent US10322180B2, “Pharmaceutical composition comprising modified hemoglobin-based therapeutic agent for cancer targeting treatment and diagnostic imaging” (Vision Global Holdings Ltd., priority 2013, dated 2019).

Tested on: Liver cancer cells, HepG2
Test: Live cell imaging uptake, liver cancer cells
Format: cell-based, human
Settings: FIG. 23A-23C
Protocol: Cancer cells (e.g. HepG2 liver cancer cells) are seeded onto glass bottom microwell dishes (MatTek Corporation). Live cells at defined zooms (63×, 20×) are acquired using Zeiss Observer Z1 widefield microscope, equipped with atmospheric/temperature-controlled chamber and motorized stage for multi-positional acquisition. The incubation is performed in an enclosed live cell imaging system purged with 0.1% 02 and 5% CO2 (premixed). Cells are exposed to (1) Hb-5FU-alkyl(non-cleavable)-FL conjugate, labeled with one fluorescent dye and (2) Hb-5Fu-Dan-TAM conjugate, labeled with two fluorescent dyes; for 15 min prior to the acquisition of images every 3 min for a period of 2 h. Images are deconvolved and compacted into time-lapse movies using the MetaMorph software (Molecular Device).

Substance: fluorescent labeled hemoglobin: hemoglobin linked to one or more molecules of fluorescein (fluorescein 6-carboxysuccinimidyl ester, F-6-NHS)
- entry into liver cancer cells (fluorescent signal under microscope): can also enter into the cancer cells
- entry into liver cancer cells (fluorescent signal under microscope) (listed as fluorescent labeled modified hemoglobin): can enter into liver cancer cells successfully
